Tests used:
in vivo = settings: APP/PS1, mouse, po
[1] = tested on: Aβ deposits in brain tissues of APP/PS1 mice; test: In vivo activity in transgenic APP/PS1 mouse model; settings: 4-month-old APP/PS1 mice, orally administered for 3.5 months

| Compound | bioavailability (in vivo) | Aβ deposits in brain tissues [1] |
| --- | --- | --- |
| O=C1NCC(c2ccc(-c3csc(C(F)(F)F)c3)c(F)c2F)N1c1ccc2[nH]cnc2c1 (centres unmarked) [Compound 28, 1-(1H-benzimidazol-5-yl)-5-{2,3-difluoro-4-[5-(trifluoromethyl)thiophen-3-yl]phenyl}-imidazolidin-2-one] | 25% |  |
| O=C1NC(=O)N(c2ccc3[nH]cnc3c2)C1c1ccc(-c2nc(C(F)(F)F)cs2)cc1 (centres unmarked) [Compound 37, 1-(1H-benzimidazol-5-yl)-5-{4-[4-(trifluoromethyl)-1,3-thiazol-2-yl]phenyl}imidazolidine-2,4-dione] |  | depletion of Aβ deposits in brain tissues |
